Columns and labels:
[1] = VBP15-003 24-week dose-finding extension, safety; type: in vivo, human
Procedure: Vamorolone clinical studies have been conducted in adult male volunteers and boys with DMD, a disorder in which skeletal muscle is in a chronic inflammatory state. Two consecutive open-label dose-ranging studies in 48 DMD patients aged 4 to <7 years (corticosteroid-naïve) were conducted (Phase IIa, VBP15-002; Phase IIa, VBP15-003). Doses were tested over a 24-fold dose range (0.25, 0.75, 2.0, and 6.0 mg/kg/day), with 12 participants per group. The first multiple ascending dose (MAD) cohort trial-tested pharmacokinetics (PK) and safety for 2 weeks of drug dosing followed by a 2-week washout (VBP15-002). […] All DMD participants completed the MAD study and then continued on the same dose for a 24-week dose-finding (efficacy and safety) extension study (VBP15-003).
VBP15-002 (Phase IIa; two weeks on the drug, two weeks off drug) enrolled 48 corticosteroid-naïve participants with DMD, and all 48 participants completed the study and enrolled into VBP15-003 (Phase IIa extension; 24-week treatment). Forty-six of 48 participants completed the VBP15-003 study (2 participants withdrew from VBP15-003 for reasons unrelated to the study drug). In addition, all participants (46/46) opted to enroll in the 24-month long-term extension study, VBP15-LTE.
Only participants completing VBP15-002 and VBP15-003 were eligible to enroll in VBP15-LTE. Participants received vamorolone at 1 of 4 dose levels (0.25, 0.75, 2.0, or 6.0 mg/kg/day) and at the same dose level in both the 4-week VBP15-002 trial and the 24-week VBP15-003 trial. If participants, their families, and their physicians wished to continue vamorolone treatment upon exiting the VBP15-003 trial, they were offered participation in the 24-month long-term extension (VBP15-LTE). The last visit of the VBP15-003 trial was commensurate with the first visit of the VBP15-LTE trial. In all studies, study medication was provided as 4% flavored liquid suspension and was dosed according to body weight and given once daily in the morning with food.
(§1) Study visits took place quarterly, including assessment of clinical laboratory results, vital signs, and AEs. All AEs were coded using the Medical Dictionary for Regulatory Activities (MedDRA version 19.0) system for reporting (preferred term and system organ class). Clinical efficacy assessments were performed at baseline of the VBP15-002 study, at six months (end of VBP15-003 study), and the 12-month midpoint visit of the VBP15-LTE study.

[2] = Physician-reported adverse events, VBP15-LTE/DSUR vs published corticosteroid studies; type: in vivo, human
Procedure: as §1
The incidences of physician-reported AEs typically for corticosteroid treatment were determined for participants that had been treated with vamorolone 6.0 mg/kg/day (for any duration), taken from the March 2019 Data Safety Update Report (DSUR) (pharmacovigilance report). Incidence rates of Cushingoid features, weight gain, hirsutism, and behavior change were studied (Table 8).

[3] = 6.0 mg/kg/day vamorolone, any duration, DSUR Mar. 2019

In the case of C[C@@H]1C[C@H]2[C@@H]3CCC4=CC(=O)C=C[C@]4(C)C3=CC[C@]2(C)[C@@]1(O)C(=O)CO [Vamorolone, 17α,21-dihydroxy-16α-methylpregna-1,4,9(11)-triene-3,20-dione], the “TEAE abnormal behavior, participants” value ([1]; 2.0-mg/kg/day group) was “one participant”, the “TEAE Cushingoid habitus, participants” value ([1]; 6.0-mg/kg/day group) was “one participant each” and the “TEAE abnormal blood cortisol level, participants” value ([1]; 6.0-mg/kg/day group) was “one participant each”. The “TEAE anxiety, participants” value ([1]; 6.0-mg/kg/day group) was “one participant each”, the “TEAE hypertrichosis, participants” value ([1]; 6.0-mg/kg/day group) was “two participants” and the “TEAE personality change, participants” value ([1]; 6.0-mg/kg/day group) was “one participant each”. For the same compound, the safety and tolerability ([1]; oral, all doses tested, 24 weeks) was “safe and well-tolerated”, the “Incidence of Cushingoid” value [2, 3] was 2.6% and the “Incidence of behavior change” value [2, 3] was 0%^2. The Incidence of hypertrichosis/hirsutism [2, 3] was 0%, the “Incidence of weight gain” value [2, 3] was 13.2% and the “Cushingoid features among the 14 probably/definitely related AEs” value ([2]; VBP15-LTE, DSMB report) was 1. The “TEAEs deemed definitely related” value ([2]; VBP15-LTE, DSMB report) was “three”, the “TEAEs deemed possibly related” value ([2]; VBP15-LTE, DSMB report) was 29 and the “TEAEs deemed probably related” value ([2]; VBP15-LTE, DSMB report) was 11. For the same compound, the “TEAEs deemed remotely related” value ([2]; VBP15-LTE, DSMB report) was 37, the TEAEs deemed unrelated ([2]; VBP15-LTE, DSMB report) was 402 and the “increased appetite among the 14 probably/definitely related AEs” value ([2]; VBP15-LTE, DSMB report) was 2. For the same compound, the “irritability among the 14 probably/definitely related AEs” value ([2]; VBP15-LTE, DSMB report) was 1, the “serious AEs (all deemed unrelated to study drug)” value ([2]; VBP15-LTE, DSMB report) was “three” and the “weight gain among the 14 probably/definitely related AEs” value ([2]; VBP15-LTE, DSMB report) was 10.

Source: patent US20240299416A1, “TREATMENT OF NF-kB-MEDIATED DISEASE” (ReveraGen BioPharma, Inc., priority 2021, published 2024)
